pIC50: −log10 of the molar value.
biological target: ROCK2 (Homo sapiens (Human), UniProt O75116); assay: ROCK2 kinase inhibition assay (FITC peptide substrate, LABCHIP 3000 Reader); assay type: biochemical; conditions: 5 μM ATP, 1.5 μM peptide substrate
Protocol: The effectiveness of compounds of the present invention as ROCK inhibitors can be determined in a 30 μL assay containing 20 mM HEPES, pH 7.5, 20 mM MgCl2, 0.015% Brij-35, 4 mM DTT, 5 μM ATP and 1.5 μM peptide substrate (FITC-AHA-AKRRRLSSLRA-OH) (SEQ ID NO. 1). Compounds were dissolved in DMSO so that the final concentration of DMSO was <2%, and the reaction was initiated with Rho kinase variants. After incubation, the reaction was terminated by the addition of EDTA and the phosphorylated and non-phosphorylated peptides separated using a LABCHIP® 3000 Reader (Caliper Life Sciences). […] Compounds were tested in dose-response format, and the inhibition of kinase activity was calculated at each concentration of compound. The inhibition data were fit using a curve-fitting program to determine the IC50; i.e., the concentration of compound required to inhibit 50% of kinase activity.
Representative examples were tested in the ROCK2 assay described above and found having ROCK2 inhibitory activity.

Sequence of ROCK2 (O75116 whole entry, species assumed): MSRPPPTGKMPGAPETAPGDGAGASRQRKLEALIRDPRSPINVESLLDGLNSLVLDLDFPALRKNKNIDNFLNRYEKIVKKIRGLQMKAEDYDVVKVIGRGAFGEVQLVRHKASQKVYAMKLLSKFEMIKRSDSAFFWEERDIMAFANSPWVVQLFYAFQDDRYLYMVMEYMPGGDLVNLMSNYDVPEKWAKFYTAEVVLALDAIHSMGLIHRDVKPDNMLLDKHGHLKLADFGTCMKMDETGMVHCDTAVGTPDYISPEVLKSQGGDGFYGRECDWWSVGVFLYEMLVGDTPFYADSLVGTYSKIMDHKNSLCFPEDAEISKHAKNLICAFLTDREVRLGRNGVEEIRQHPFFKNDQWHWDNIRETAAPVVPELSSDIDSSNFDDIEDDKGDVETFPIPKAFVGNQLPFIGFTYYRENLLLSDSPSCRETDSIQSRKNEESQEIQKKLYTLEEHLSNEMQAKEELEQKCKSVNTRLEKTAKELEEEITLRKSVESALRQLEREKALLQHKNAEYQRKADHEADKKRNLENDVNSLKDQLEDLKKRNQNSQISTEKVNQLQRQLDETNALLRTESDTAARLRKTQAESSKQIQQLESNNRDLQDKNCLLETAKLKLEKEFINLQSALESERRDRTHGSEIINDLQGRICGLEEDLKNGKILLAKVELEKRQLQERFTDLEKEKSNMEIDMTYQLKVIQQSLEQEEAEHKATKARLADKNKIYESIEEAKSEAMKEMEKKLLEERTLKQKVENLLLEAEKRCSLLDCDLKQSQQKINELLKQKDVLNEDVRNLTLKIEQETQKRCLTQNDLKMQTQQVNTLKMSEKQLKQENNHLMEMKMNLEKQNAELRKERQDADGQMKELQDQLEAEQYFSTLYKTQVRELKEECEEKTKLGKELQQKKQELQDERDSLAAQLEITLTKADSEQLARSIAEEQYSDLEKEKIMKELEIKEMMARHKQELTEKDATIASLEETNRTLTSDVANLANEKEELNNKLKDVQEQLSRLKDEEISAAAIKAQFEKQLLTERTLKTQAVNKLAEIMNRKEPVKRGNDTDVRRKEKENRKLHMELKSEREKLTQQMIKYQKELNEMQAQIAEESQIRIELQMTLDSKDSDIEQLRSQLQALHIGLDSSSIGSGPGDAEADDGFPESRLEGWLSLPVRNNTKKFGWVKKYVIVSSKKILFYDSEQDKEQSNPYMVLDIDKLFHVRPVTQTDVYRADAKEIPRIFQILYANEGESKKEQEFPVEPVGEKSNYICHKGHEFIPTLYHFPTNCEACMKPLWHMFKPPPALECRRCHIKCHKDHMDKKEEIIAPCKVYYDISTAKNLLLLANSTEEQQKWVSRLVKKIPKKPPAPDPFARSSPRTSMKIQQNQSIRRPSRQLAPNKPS

pIC50	SMILES
7.52 to 8.52	COc1nc(N2CC3(CCN(C(=O)OC(C)(C)C)CC3)N(Cc3cccc(F)c3C)C2=O)ccc1-c1cn[nH]c1 [Example 55, tert-butyl 1-(3-fluoro-2-methylbenzyl)-3-(6-methoxy-5-(1H-pyrazol-4-yl)pyridin-2-yl)-2-oxo-1,3,8-triazaspiro[4.5]decane-8-carboxylate]
> 8.52	CCc1nc(N2CC3(CCN(CC(C)O)CC3)N(Cc3cccc(F)c3C)C2=O)ccc1-c1cn[nH]c1 (stereo not drawn) [Example 156, 3-(6-ethyl-5-(1H-pyrazol-4-yl)pyridin-2-yl)-1-(3-fluoro-2-methylbenzyl)-8-(2-hydroxypropyl)-1,3,8-triazaspiro[4.5]decan-2-one]
> 8.52	COc1cccc(CN2C(=O)N(c3ccc(-c4cn[nH]c4)cc3)CC23CCN(CC2CCC(F)(F)CC2)CC3)c1 [Example 231, 3-(4-(1H-pyrazol-4-yl)phenyl)-8-((4,4-difluorocyclohexyl)methyl)-1-(3-methoxybenzyl)-1,3,8-triazaspiro[4.5]decan-2-one]
> 8.52	CCc1nc(N2CC3(CCN(CC(C)O)CC3)N(Cc3cccc(OC)c3)C2=O)ccc1-c1cn[nH]c1 (stereo not drawn) [Example 151, 3-(6-ethyl-5-(1H-pyrazol-4-yl)pyridin-2-yl)-8-(2-hydroxypropyl)-1-(3-methoxybenzyl)-1,3,8-triazaspiro[4.5]decan-2-one]
7.52 to 8.52	COc1cccc(CN2C(=O)N(c3ncc(-c4cn[nH]c4)c(OC)n3)CC23CCN(CC(C)(C)O)CC3)c1 [Example 163, 8-(2-hydroxy-2-methylpropyl)-3-(4-methoxy-5-(1H-pyrazol-4-yl)pyrimidin-2-yl)-1-(3-methoxybenzyl)-1,3,8-triazaspiro[4.5]decan-2-one]
7.52 to 8.52	COc1cccc(CN2C(=O)N(c3ccc(-c4cn[nH]c4)cn3)CC23CCN(C(=O)OC(C)(C)C)CC3)c1 [Example 51, tert-butyl 3-(5-(1H-pyrazol-4-yl)pyridin-2-yl)-1-(3-methoxybenzyl)-2-oxo-1,3,8-triazaspiro[4.5]decane-8-carboxylate]
5.52 to 6.60	O=C(c1cccc(CN2C(=O)N(c3ccc(-c4cn[nH]c4)cc3)CC23CCOCC3)c1)N1CC(F)C1 [Example 43, 3-(4-(1H-pyrazol-4-yl)phenyl)-1-(3-(3-fluoroazetidine-1-carbonyl)benzyl)-8-oxa-1,3-diazaspiro[4.5]decan-2-one]
> 8.52	CC(C)CNC(=O)c1cccc(CN2C(=O)N(c3ccc(-c4cn[nH]c4)cc3)CC23CCOCC3)c1 [Example 35, 3-((3-(4-(1H-pyrazol-4-yl)phenyl)-2-oxo-8-oxa-1,3-diazaspiro[4.5]decan-1-yl)methyl)-N-isobutylbenzamide]
7.52 to 8.52	O=C1N(c2ccc(-c3cn[nH]c3)cc2)CC2(CCNCC2)N1Cc1cccc(OC(F)F)c1 [Example 61, 3-(4-(1H-pyrazol-4-yl)phenyl)-1-(3-(difluoromethoxy)benzyl)-1,3,8-triazaspiro[4.5]decan-2-one]
> 8.52	COc1cccc(CN2C(=O)N(c3ccc(-c4cn[nH]c4)c(OC)n3)CC23CCN(C(=O)CO)CC3)c1 [Example 220, 8-(2-hydroxyacetyl)-3-(6-methoxy-5-(1H-pyrazol-4-yl)pyridin-2-yl)-1-(3-methoxybenzyl)-1,3,8-triazaspiro[4.5]decan-2-one]
7.52 to 8.52	COc1cccc(CN2C(=O)N(c3ccc(-c4cn[nH]c4)cc3)CC23CCN(C(=O)OC(C)(C)C)CC3)c1 [Example 48, tert-butyl 3-(4-(1H-pyrazol-4-yl)phenyl)-1-(3-methoxybenzyl)-2-oxo-1,3,8-triazaspiro[4.5]decane-8-carboxylate]
> 8.52	COc1cccc(CN2C(=O)N(c3ccc(-c4cn[nH]c4)cc3)CC23CCN(CC2CCCC2)CC3)c1 [Example 118, 3-(4-(1H-pyrazol-4-yl)phenyl)-8-(cyclopentylmethyl)-1-(3-methoxybenzyl)-1,3,8-triazaspiro[4.5]decan-2-one]
7.52 to 8.52	CCc1nc(N2CC3(CCN(CCC(F)(F)F)CC3)N(Cc3cccc(F)c3C)C2=O)ccc1-c1cn[nH]c1 [Example 126, 3-(6-ethyl-5-(1H-pyrazol-4-yl)pyridin-2-yl)-1-(3-fluoro-2-methylbenzyl)-8-(3,3,3-trifluoropropyl)-1,3,8-triazaspiro[4.5]decan-2-one]
> 8.52	COc1nc(N2CC3(CCN(C(C)=O)CC3)N(Cc3cccc(F)c3C)C2=O)ccc1-c1cn[nH]c1 [Example 86, 8-acetyl-1-(3-fluoro-2-methylbenzyl)-3-(6-methoxy-5-(1H-pyrazol-4-yl)pyridin-2-yl)-1,3,8-triazaspiro[4.5]decan-2-one]
> 8.52	COc1cccc(CN2C(=O)N(c3ccc(-c4cn[nH]c4)cc3)CC23CCOCC3)c1 [Example 9, 3-(4-(1H-pyrazol-4-yl)phenyl)-1-(3-methoxybenzyl)-8-oxa-1,3-diazaspiro[4.5]decan-2-one]
5.52 to 6.60	COc1cccc(NC2C(=O)N(c3ccc(-c4cn[nH]c4)cc3)CC23CN(CC(F)F)C3)c1 (stereo not drawn) [Example 247, 6-(4-(1H-pyrazol-4-yl)phenyl)-2-(2,2-difluoroethyl)-8-((3-methoxy-phenyl)amino)-2,6-diazaspiro [3.4]octan-7-one]
> 8.52	CCc1nc(N2CC3(CCN(CC(C)O)CC3)N(Cc3cc(F)cc(OC)c3)C2=O)ccc1-c1cn[nH]c1 (stereo not drawn) [Example 154, 3-(6-ethyl-5-(1H-pyrazol-4-yl)pyridin-2-yl)-1-(3-fluoro-5-methoxybenzyl)-8-(2-hydroxypropyl)-1,3,8-triazaspiro[4.5]decan-2-one]

More lines, now with the values behind:

SMILES	pIC50
COc1cccc(CN2C(=O)N(c3ccc(-c4cn[nH]c4)cc3)CC23CCN(CCc2ccccc2)CC3)c1 [Example 125, 3-(4-(1H-pyrazol-4-yl)phenyl)-1-(3-methoxybenzyl)-8-phenethyl-1,3,8-triazaspiro[4.5]decan-2-one]	7.52 to 8.52
COc1cccc(CN2C(=O)N(c3ccc(-c4cn[nH]c4)cc3)CC23CCN(C(=O)C2CCC2)CC3)c1 [Example 172, 3-(4-(1H-pyrazol-4-yl)phenyl)-8-(cyclobutanecarbonyl)-1-(3-methoxybenzyl)-1,3,8-triazaspiro[4.5]decan-2-one]	> 8.52
COC(=O)N1CCC2(CC1)CN(c1ccc(-c3cn[nH]c3)cc1)C(=O)N2Cc1cc(F)cc(OC)c1 [Example 109, methyl 3-(4-(1H-pyrazol-4-yl)phenyl)-1-(3-fluoro-5-methoxybenzyl)-2-oxo-1,3,8-triazaspiro[4.5]decane-8-carboxylate]	> 8.52
CCc1nc(N2CC3(CCN(CC(C)(C)O)CC3)N(Cc3cc(F)cc(OC)c3)C2=O)ccc1-c1cn[nH]c1 [Example 155, 3-(6-ethyl-5-(1H-pyrazol-4-yl)pyridin-2-yl)-1-(3-fluoro-5-methoxybenzyl)-8-(2-hydroxy-2-methylpropyl)-1,3,8-triazaspiro[4.5]decan-2-one]	> 8.52
COc1cccc(CN2C(=O)N(c3ccc(-c4cn[nH]c4)cn3)CC23CCN(C(=O)CO)CC3)c1 [Example 195, 3-(5-(1H-pyrazol-4-yl)pyridin-2-yl)-8-(2-hydroxyacetyl)-1-(3-methoxybenzyl)-1,3,8-triazaspiro[4.5]decan-2-one]	7.52 to 8.52
COc1cccc(CN2C(=O)N(c3ccc(-c4cn[nH]c4)cc3)CC23CCN(C(=O)C(C)O)CC3)c1 (stereo not drawn) [Example 191, 3-(4-(1H-pyrazol-4-yl)phenyl)-8-(2-hydroxypropanoyl)-1-(3-methoxybenzyl)-1,3,8-triazaspiro[4.5]decan-2-one]	> 8.52
COc1cccc(CN2C(=O)N(c3ccc(-c4cn[nH]c4)cc3)CC23CCN(C(=O)OCC(C)(C)C)CC3)c1 [Example 97, neopentyl 3-(4-(1H-pyrazol-4-yl)phenyl)-1-(3-methoxybenzy1)-2-oxo-1,3,8-triazaspiro[4.5]decane-8-carboxylate]	7.52 to 8.52
O=C1N(c2ccc(-c3cn[nH]c3)cc2)CC2(CCOCC2)N1Cc1cccc(OC(F)(F)F)c1 [Example 20, 3-(4-(1H-pyrazol-4-yl)phenyl)-1-(3-(trifluoromethoxy)benzyl)-8-oxa-1,3-diazaspiro[4.5]decan-2-one]	6.60 to 7.52
COc1cccc(NC2C(=O)N(c3ncc(-c4cn[nH]c4)c(OC)n3)CC23CCN(C(=O)OC(C)(C)C)CC3)c1 (stereo not drawn) [Example 241, tert-butyl 2-(4-methoxy-5-(1H-pyrazol-4-yl)pyrimidin-2-yl)-4-((3-methoxyphenyl)amino)-3-oxo-2,8-diazaspiro[4.5]decane-8-carboxylate]	5.52 to 6.60
O=C1N(c2ccc(-c3cn[nH]c3)cc2)CC2(CCOCC2)N1Cc1cccc(Cl)c1 [Example 16, 3-(4-(1H-pyrazol-4-yl)phenyl)-1-(3-chlorobenzyl)-8-oxa-1,3-diazaspiro[4.5]decan-2-one]	7.52 to 8.52
O=C1N(c2ccc(-c3cn[nH]c3)cc2)CC2(CCNCC2)N1Cc1cccc(F)c1F [Example 64]	7.52 to 8.52
CCOC(=O)N1CCC2(CC1)CN(c1ncc(-c3cn[nH]c3)c(OC)n1)C(=O)N2Cc1cccc(OC)c1 [Example 112, ethyl 3-(4-methoxy-5-(1H-pyrazol-4-yl)pyrimidin-2-yl)-1-(3-methoxybenzyl)-2-oxo-1,3,8-triazaspiro[4.5]decane-8-carboxylate]	7.52 to 8.52
COc1cccc(CN2C(=O)N(c3ncc(-c4cn[nH]c4)c(OC)n3)CC23CCN(C(=O)CC(C)C)CC3)c1 [Example 214, 3-(4-methoxy-5-(1H-pyrazol-4-yl)pyrimidin-2-yl)-1-(3-methoxybenzyl)-8-(3-methylbutanoyl)-1,3,8-triazaspiro[4.5]decan-2-one]	7.52 to 8.52

Reference: patent US10787450B2 (BRISTOL-MYERS SQUIBB COMPANY, priority 2016, dated 2020)
